In patent publication US10259817B2, “Crystal (6S,9aS)-N-benzyl-8-({6-[3-(4-ethylpiperazin-1-yl)azetidin-1-yl]pyridin-2-yl}methyl)-6-(2-fluoro-4-hydroxybenzyl)-4,7-dioxo-2-(prop-2-en-1-yl)hexahydro-2H-pyrazino[2,1-c][1,2,4]triazine-1(6H)-carboxamide” (Eisai R&D Management Co., Ltd., priority 2015, dated 2019):

Key:
Wnt signal = test: Detection of Wnt signal (TOPglow luciferase reporter, LiCl-stimulated HEK293 clone); type: cell-based; conditions: Homo sapiens; HEK293 pNeo-TOP clone, LiCl added, luciferase emission; read-out: IC50, concentration required for inhibiting the Wnt signal activity by 50%
Excerpt: The plasmid pNeo-TOP was introduced into human fetus-derived renal cell strain HEK293, then a compound was selected using G418, and then a cell clone strain was established by a limiting dilution method. The cell clone strain was subjected to a Wnt signal detection test.
The cell clone strain was subcultured in a D-MEM glucose-rich culture medium (Wako Pure Chemical Industries, Ltd.) containing 10% FBS, and cells in a growth phase were used in the test. Cells were collected using trypsin-EDTA, the number of the cells was counted, and then the cells were suspended in a D-MEM glucose-rich culture medium containing 10% FBS so that the number of cells became 2×10^5 cells/mL. The cell suspension was added to a 96-well cell culture plate (Greiner Bio-One Co., Ltd., product number: 655083) in an amount of 0.1 mL/well and then cultured overnight in a 5% CO2 incubator (37° C.). After the culturing, a substance to be tested, which was dissolved in DMSO, was diluted with a D-MEM glucose-rich culture medium containing 10% of FBS and 80 mM of LiCl to produce a sample solution. The sample solution (0.1 mL) was added to each well and then cultured in a 5% CO2 incubator (37° C.) overnight. […] The plate was put on a plate mixer for several seconds, and then the emission of light from each well was measured using a EnVision™ Multilabel plate reader (PerkinElmer Co., Ltd.). […]

[1] = system: human chronic myologenous leukemia cell strain K562; conditions: day 28; Dasatinib 5 mg/kg alone, oral qd 5 days + 2-day holiday, two cycles
Excerpt: A preparation of a human chronic myologenous leukemia cell strain K562 (which had been cultured in a RPMI-1640 liquid culture medium supplemented with 10% FBS and penicillin/streptomycin) which was so prepared with PBS (Wako Pure Chemical Industries, Ltd.; Cat#045-29795) that the density became 2×10^8 cells/mL was mixed with [sequence] (BD Biosicence, Cat#: 354234) at a mixing ratio of 1:1, thereby preparing a cell suspension having a density of 1×10^8 cells/mL. The resulting cell suspension was transplanted subcutaneously into the right flank of each of six-week-old nude mice (CAnN.Cg-Foxn1nu/CrlCrlj, female, Charles River Laboratories Japan) at a dose of 100 μL. Seven days after the transplantation, the shorter diameter and the longer diameter of a tumor were measured using an electronic digital caliper (Digimatic™ Caliper, Mitutoyo Corporation) to calculate the tumor volume in accordance with the following equation. Tumor volume (mm^3)=(longer diameter (mm))×(shorter diameter (mm))×(shorter diameter (mm))/2
The mice were grouped in such a manner that the average value of the tumor volumes in mice in a group, which were determined on the basis of the tumor volume on the first day of the administration. […]

SMILES | IC50 (Wnt signal) | the number of individuals in which a tumor was not observed by visual judgment/total number of administered individuals [1]
C=CCN1CC(=O)N2[C@@H](Cc3ccc(O)cc3F)C(=O)N(Cc3cccc(N4CC(N5CCN(CC)CC5)C4)n3)C[C@@H]2N1C(=O)NCc1ccccc1 [Example 1, (6S,9aS)-N-benzyl-8-({6-[3-(4-ethylpiperazin-1-yl)azetidin-1-yl]pyridin-2-yl}methyl)-6-(2-fluoro-4-hydroxybenzyl)-4,7-dioxo-2-(prop-2-en-1-yl)hexahydro-2H-pyrazino[2,1-c][1,2,4]triazine-1(6H)-carboxamide] | 60 nM | 
Cc1nc(Nc2ncc(C(=O)Nc3c(C)cccc3Cl)s2)cc(N2CCN(CCO)CC2)n1 [Dasatinib] |  | 0/9
